In patent publication US20220152064A1, “BENZOAZEPINE COMPOUND-CONTAINING PHARMACEUTICAL COMPOSITION” (OTSUKA PHARMACEUTICAL CO., LTD., priority 2019, published 2022):

Assay: Side effects on the skin or subcutaneous tissue in test of intravenous administration of compound A composition to healthy subjects
Assay type: in vivo, human
Settings: for Erythema (number of subjects) / Hyperhidrosis (number of subjects) / Number of subjects who showed at least one symptom / Pruritus (number of subjects): N=6 healthy adult males, within 24 hours after initiation of administration
Protocol: Water for injection (5 mL) was added to each of the obtained 0 mg formulation and 25 mg formulation to dissolve the freeze-dried compositions (freeze-dried cakes), thus obtaining aqueous solutions for injection. When the 25 mg formulation was dissolved in 5 mL of water for injection, 5.21 mL of the aqueous solution composition (25 mg formulation (aqueous solution for injection)) shown in Table 1 comprising 5 mg/mL of the active ingredient (compound A) was reconstituted. Further, according to the compositions shown in Table 3 below, administration solutions were prepared by mixing the 25 mg formulation (aqueous solution for injection), the 0 mg formulation (aqueous solution for injection), and a physiological saline (physiological saline solution).
Each of the obtained administration solutions was intravenously administered with a syringe pump over the administration times shown in Table 3. The number of subjects to which each solution was administered was 6 healthy adult males (aged 20 to 40 years old) (N=6).
The number of subjects who developed, within 24 hours after the initiation of administration, side effects that could appear on the skin or subcutaneous tissue (erythema, hyperhidrosis, or pruritus) was recorded.

[1] = administration solution 1, 15 mg compound A i.v. over 2 hours
[2] = administration solution 2, 7.5 mg compound A i.v. over 2 hours
[3] = administration solution 3, 15 mg compound A i.v. over 5 minutes
[4] = administration solution 4, 7.5 mg compound A i.v. over 5 minutes
[5] = administration solution 5, 15 mg compound A i.v. over 1 minute
[6] = administration solution 6, 7.5 mg compound A i.v. over 1 minute

Cc1ccccc1C(=O)Nc1ccc(C(=O)N2CCCC(OP(=O)([O-])[O-])c3cc(Cl)ccc32)c(C)c1.[Na+].[Na+] (centres unmarked) [compound A]
erythema, hyperhidrosis, or pruritus (7.5 mg or 15 mg of compound A intravenously administered over a period of 1 minute or 5 minutes (administration solutions 3 to 6)): frequently observed | side effects that could appear on the skin or subcutaneous tissue, such as erythema, hyperhidrosis, or pruritus (7.5 mg or 15 mg of compound A slowly administered over a period of 2 hours (administration solutions 1 and 2)): no side effects | Erythema (number of subjects) [1]: 0 human | Hyperhidrosis (number of subjects) [1]: 0 human | Number of subjects who showed at least one symptom [1]: 0 human | Pruritus (number of subjects) [1]: 0 human | Erythema (number of subjects) [2]: 0 human | Hyperhidrosis (number of subjects) [2]: 0 human | Number of subjects who showed at least one symptom [2]: 0 human | Pruritus (number of subjects) [2]: 0 human | Erythema (number of subjects) [3]: 4 human | Hyperhidrosis (number of subjects) [3]: 2 human | Number of subjects who showed at least one symptom [3]: 5 human | Pruritus (number of subjects) [3]: 4 human | Erythema (number of subjects) [4]: 3 human | Hyperhidrosis (number of subjects) [4]: 2 human | Number of subjects who showed at least one symptom [4]: 4 human | Pruritus (number of subjects) [4]: 3 human | Erythema (number of subjects) [5]: 5 human | Hyperhidrosis (number of subjects) [5]: 2 human | Number of subjects who showed at least one symptom [5]: 5 human | Pruritus (number of subjects) [5]: 4 human | Erythema (number of subjects) [6]: 5 human | Hyperhidrosis (number of subjects) [6]: 0 human | Number of subjects who showed at least one symptom [6]: 5 human | Pruritus (number of subjects) [6]: 4 human
